Results published in patent publication US10150728B2, “Alkylene derivatives” (Shionogi & Co., Ltd., priority 2013, dated 2018).

Target: recombinant human ACC2 (Homo sapiens (Human), UniProt O00763)
Assay: Measurement of inhibitory activity on human ACC2 (MALDI-TOF MS, acetyl CoA to malonyl CoA conversion)
Type: biochemical
Conditions: Table 154
Procedure, shortened: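 His-tagged human ACC2 (residues 27–2458) from baculovirus-infected Sf-9 cells was preincubated 1 h in pH 7.4 HEPES-KOH buffer with MgCl2, 6-10 mM potassium citrate, glutathione and BSA. Substrate solution held 1 mM ATP, 0.8 mM acetyl CoA and 25-50 mM bicarbonate. After 1–3 h at room temperature, malonyl CoA/(malonyl+acetyl CoA) was read by negative-mode MALDI-TOF MS; citrate, bicarbonate and time varied by enzyme lot.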

recombinant human ACC2, sequence (O00763 27-2458): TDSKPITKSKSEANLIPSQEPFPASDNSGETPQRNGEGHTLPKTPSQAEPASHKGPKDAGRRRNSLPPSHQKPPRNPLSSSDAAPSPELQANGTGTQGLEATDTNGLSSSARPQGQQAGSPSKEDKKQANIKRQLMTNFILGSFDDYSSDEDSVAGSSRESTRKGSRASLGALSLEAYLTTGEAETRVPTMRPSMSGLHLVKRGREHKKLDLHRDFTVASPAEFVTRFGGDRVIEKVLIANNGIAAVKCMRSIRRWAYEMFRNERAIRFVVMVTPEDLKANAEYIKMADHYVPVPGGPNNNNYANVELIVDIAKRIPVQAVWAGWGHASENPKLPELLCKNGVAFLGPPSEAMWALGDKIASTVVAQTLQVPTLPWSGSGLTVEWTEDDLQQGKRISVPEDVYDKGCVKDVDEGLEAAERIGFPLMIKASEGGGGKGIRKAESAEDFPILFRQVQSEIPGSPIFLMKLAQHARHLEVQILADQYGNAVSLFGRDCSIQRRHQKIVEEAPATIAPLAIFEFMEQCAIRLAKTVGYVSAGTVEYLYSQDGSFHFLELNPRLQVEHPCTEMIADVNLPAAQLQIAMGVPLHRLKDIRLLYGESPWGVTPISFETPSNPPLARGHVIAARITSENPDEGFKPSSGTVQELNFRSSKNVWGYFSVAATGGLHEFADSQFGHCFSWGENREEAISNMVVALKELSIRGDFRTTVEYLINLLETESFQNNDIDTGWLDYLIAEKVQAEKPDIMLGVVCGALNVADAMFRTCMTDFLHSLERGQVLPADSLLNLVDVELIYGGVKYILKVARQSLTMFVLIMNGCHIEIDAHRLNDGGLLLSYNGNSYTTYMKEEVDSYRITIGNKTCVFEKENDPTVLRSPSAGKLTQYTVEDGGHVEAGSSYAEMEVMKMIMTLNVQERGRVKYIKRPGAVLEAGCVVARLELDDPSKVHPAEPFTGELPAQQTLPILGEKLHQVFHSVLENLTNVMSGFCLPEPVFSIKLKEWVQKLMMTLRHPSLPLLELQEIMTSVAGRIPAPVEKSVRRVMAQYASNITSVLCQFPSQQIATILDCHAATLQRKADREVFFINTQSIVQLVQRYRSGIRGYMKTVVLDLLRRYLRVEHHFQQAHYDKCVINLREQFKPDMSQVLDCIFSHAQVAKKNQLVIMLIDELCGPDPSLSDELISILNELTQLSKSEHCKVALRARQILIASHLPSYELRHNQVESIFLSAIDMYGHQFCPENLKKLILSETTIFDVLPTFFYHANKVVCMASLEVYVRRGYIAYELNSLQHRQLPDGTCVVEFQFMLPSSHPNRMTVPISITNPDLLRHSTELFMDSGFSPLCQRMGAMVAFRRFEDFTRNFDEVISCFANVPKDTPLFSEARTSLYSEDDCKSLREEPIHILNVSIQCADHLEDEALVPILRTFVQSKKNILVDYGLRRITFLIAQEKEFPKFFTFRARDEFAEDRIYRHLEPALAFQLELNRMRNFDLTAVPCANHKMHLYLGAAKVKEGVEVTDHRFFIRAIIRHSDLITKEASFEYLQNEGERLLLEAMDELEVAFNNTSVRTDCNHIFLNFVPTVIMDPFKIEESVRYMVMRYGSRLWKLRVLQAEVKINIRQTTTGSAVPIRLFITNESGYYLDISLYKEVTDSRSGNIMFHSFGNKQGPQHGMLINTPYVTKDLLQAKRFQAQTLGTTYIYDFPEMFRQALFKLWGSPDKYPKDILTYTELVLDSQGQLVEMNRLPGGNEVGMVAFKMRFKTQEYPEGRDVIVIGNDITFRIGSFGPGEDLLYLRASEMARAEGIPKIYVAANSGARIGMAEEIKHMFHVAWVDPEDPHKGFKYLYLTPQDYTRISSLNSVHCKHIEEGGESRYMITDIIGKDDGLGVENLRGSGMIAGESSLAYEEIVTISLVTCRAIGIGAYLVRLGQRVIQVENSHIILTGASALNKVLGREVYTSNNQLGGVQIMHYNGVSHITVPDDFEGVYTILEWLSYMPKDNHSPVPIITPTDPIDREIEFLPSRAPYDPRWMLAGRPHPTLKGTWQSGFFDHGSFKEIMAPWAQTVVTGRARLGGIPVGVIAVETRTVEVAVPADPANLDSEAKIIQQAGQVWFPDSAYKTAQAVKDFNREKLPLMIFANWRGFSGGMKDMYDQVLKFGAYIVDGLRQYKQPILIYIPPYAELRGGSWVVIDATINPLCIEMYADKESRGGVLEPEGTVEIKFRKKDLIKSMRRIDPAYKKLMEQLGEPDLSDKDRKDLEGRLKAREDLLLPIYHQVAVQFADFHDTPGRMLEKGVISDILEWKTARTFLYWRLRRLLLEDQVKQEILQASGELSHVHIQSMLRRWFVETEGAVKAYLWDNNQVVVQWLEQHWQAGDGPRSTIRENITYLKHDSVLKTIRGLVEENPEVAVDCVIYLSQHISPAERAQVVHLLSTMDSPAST

Compound	IC50 [nM]
CC(=O)N[C@@H](C)COc1cnc(Oc2ccc3nc(C(C)(F)F)oc3c2F)cn1 [Compound I-043]	93
CC(=O)N[C@@H](C)COc1cnc(Oc2ccc3nc(C(C)(F)F)sc3c2C#N)cn1 [Compound I-041]	102
CCCc1ccc(Oc2ccc(OC[C@H](C)NC(=O)NCC)cc2)c(Cl)c1 [Compound I-007]	1390

Results, then the molecule that gave them:

IC50 [nM]	Compound
8	CCOc1nc2ccc(Oc3cnc(OC[C@H](C)NC(C)=O)cn3)c(F)c2s1 [Compound I-045]
3730	CCCc1ccc(Oc2ccc(OC[C@H](C)NC(C)=O)cn2)c(Cl)c1 [Compound I-004]

Same assay, conditions: Tables 155-159

Compound	IC50 [nM]
CC(=O)N[C@@H](C)CO[C@H]1CC[C@H](Oc2nc3c(Cl)nc(OC4CC4)c(Cl)c3n2C)CC1 [Compound I-710]	6
CC(=O)N[C@@H](C)CO[C@H]1C[C@H](COc2ncnc(OCc3cccc(C#N)c3)c2Cl)C1 [Compound I-346]	19
CC(=O)N[C@@H](C)CO[C@H]1CC[C@H](Oc2nc3cnc(OCC(F)F)cc3s2)CC1 [Compound I-551]	15
CC(=O)N[C@@H](C)CO[C@H]1C[C@H](COc2ccc3nc(N(C)C)sc3n2)C1 [Compound I-231]	183
CC(=O)N[C@@H](C)CO[C@H]1CC[C@H](Oc2nc3c(F)cc(OC4CC4)c(F)c3n2C)CC1 [Compound I-611]	3
CC(=O)N[C@@H](C)CO[C@H]1C[C@H](COc2ccc3nc(N4CCCCC4)sc3n2)C1 [Compound I-265]	16
CC(=O)N[C@@H](C)CO[C@H]1C[C@H](COc2nccc(OC3CCCCC3)c2Cl)C1 [Compound I-368]	48
CC(=O)N[C@@H](C)CO[C@H]1C[C@H](COc2ccc3nc(N4CCC4)sc3c2F)C1 [Compound I-269]	125
CCOc1nc2cc(F)c(OC[C@H]3C[C@H](OC[C@H](C)NC(C)=O)C3)nc2s1 [Compound I-165]	7
CCOc1cc2c(nc(O[C@H]3CC[C@H](OC[C@H](C)NC(C)=O)CC3)n2C)c(Cl)c1Cl [Compound I-725]	101
CC(=O)N[C@@H](CF)CO[C@H]1CC[C@H](Oc2nc3cnc(OCC(F)F)c(Cl)c3n2C)CC1 [Compound I-728]	8
C[C@@H](CO[C@H]1CC[C@H](Oc2nc3c(F)cc(OCC(F)F)c(F)c3n2C)CC1)NC(N)=O [Compound I-670]	11
CCOc1cc(Cl)c2nc(O[C@H]3CC[C@H](OC[C@H](C)NC(C)=O)CC3)n(C)c2c1F [Compound I-651]	4
CC(=O)N[C@@H](C)CO[C@H]1CC[C@H](Oc2nc3cnc(OCC(F)F)c(F)c3s2)CC1 [Compound I-552]	13
CCOc1nc2ccc(OC[C@H]3C[C@@H](OC[C@H](C)NC(C)=O)C3)nc2s1 [Compound I-216]	8
CC(=O)N[C@@H](C)CO[C@H]1CC[C@H](Oc2ccc3nc(CCC4CC4)n(C)c3n2)CC1 [Compound I-514]	32
C[C@@H](CO[C@H]1CC[C@H](Oc2nc3c(F)cc(OCC(F)F)c(F)c3n2C)CC1)NC(=O)C(F)F [Compound I-614]	11
CC(=O)N[C@@H](C)CO[C@H]1C[C@H](COc2ncnc(OCc3ncco3)c2Cl)C1 [Compound I-431]	809
CC(=O)N[C@@H](C)CO[C@H]1C[C@H](COc2ncnc(OCCc3ccccc3)c2Cl)C1 [Compound I-345]	38
C[C@@H](CO[C@H]1CC[C@H](Oc2nc3c(F)cc(OC4CC4)c(F)c3n2C)CC1)NC(N)=O [Compound I-697]	4
COc1cc(OCc2ccccc2)cc2c1nc(O[C@H]1CC[C@H](OC[C@H](C)NC(C)=O)CC1)n2C [Compound I-666]	298
CCOc1ncc2nc(O[C@H]3CC[C@H](OC[C@H](C)NC(C)=O)CC3)n(C)c2c1Cl [Compound I-646]	15
CC(=O)N[C@@H](C)CO[C@H]1C[C@H](COc2nc3sc(N4CC(F)C4)nc3cc2F)C1 [Compound I-267]	58
CC(=O)N[C@@H](C)CO[C@H]1C[C@H](COc2ncnc(N3CCCC3)c2Cl)C1 [Compound I-338]	26
C[C@@H](CO[C@H]1CC[C@H](Oc2nc3c(F)cc(OCC(F)F)c(F)c3n2C)CC1)NC(=O)COC(N)=O [Compound I-640]	110
C[C@@H](CO[C@H]1CC[C@H](Oc2cc3sc(OCC4CC4(F)F)nc3cn2)CC1)NC(=O)CO (stereo partly shown) [Compound I-290]	82
CC(=O)N[C@@H](C)CO[C@H]1C[C@H](COc2ccc3nc(OCC(F)(F)F)sc3c2F)C1 [Compound I-152]	64
CC(=O)N[C@@H](C)CO[C@H]1CC[C@H](Oc2nc3ccc(C4CC4)c(F)c3n2C)CC1 [Compound I-621]	8

Results, then the molecule that gave them:

IC50 [nM]	Compound
64	CC(=O)N[C@@H](C)CO[C@H]1CC[C@H](Oc2ncc(-c3ncc(C#N)cn3)cc2F)CC1 [Compound I-524]
12	CC(=O)N[C@@H](C)CO[C@H]1C[C@H](COc2ccc3nc(Oc4ccc(F)cc4)sc3c2F)C1 [Compound I-156]
8	CC(=O)N[C@@H](C)CO[C@H]1CC[C@H](Oc2ncc3nc(N4CCC4)sc3c2F)CC1 [Compound I-234]
270	CC(=O)N[C@@H](C)CO[C@H]1C[C@H](COc2ncnc3c2c(C#N)cn3CC2CC2)C1 [Compound I-427]
4	CC(=O)N[C@@H](C)CC[C@H]1CC[C@H](Oc2nc3cnc(OC4CC4)c(Cl)c3n2C)CC1 [Compound I-636]
14	C[C@@H](CO[C@H]1CC[C@H](Oc2nc3c(F)cc(OCC(F)F)c(Cl)c3n2C)CC1)NC(N)=O [Compound I-687]
98	C[C@@H](CO[C@H]1CC[C@H](Oc2nc3c(F)cc(OCC(F)F)c(F)c3n2C)CC1)NC(=O)c1cnn(C)c1 [Compound I-629]
700	CC(=O)N[C@@H](C)CO[C@H]1CC[C@H](Oc2nc3c(C#N)cc(C4CC4)cc3n2C)CC1 [Compound I-663]
9	CC(=O)N[C@@H](C)CO[C@H]1CC[C@H](Oc2nc3cnc(OCC(F)F)c(F)c3n2C)CC1 [Compound I-624]
102	CC(=O)N[C@@H](C)CO[C@H]1CC[C@H](Oc2cc3sc(O[C@@H]4CCOC4)nc3cn2)CC1 [Compound I-260]
101	CC(=O)N[C@@H](C)CO[C@H]1CC[C@H](Oc2nc3ccc(OC(C)C)cc3n2C)CC1 [Compound I-560]
36	CC(=O)N[C@@H](C)CO[C@H]1CC[C@H](Oc2ccc3nc(OCC4(C#N)CC4)sc3c2F)CC1 [Compound I-150]
8	CCOc1nc2c(C)cc(O[C@H]3CC[C@H](OC[C@H](C)NC(C)=O)CC3)nc2s1 [Compound I-279]
14	CC(=O)N[C@@H](C)CC[C@H]1CC[C@H](Oc2ncc(-c3ncc(C(F)(F)F)cn3)cc2F)CC1 [Compound I-543]
87	CC(=O)N[C@@H](C)CO[C@H]1C[C@H](COc2ncnc3c2cc(C)n3CC2CC2)C1 [Compound I-454]
12	CC(=O)N[C@@H](C)CO[C@H]1C[C@H](COc2ccc3nc(O[C@H]4C[C@H](F)C4)sc3n2)C1 [Compound I-295]
44	CC(=O)N[C@@H](C)CO[C@H]1C[C@H](COc2nccc(N3CCC(F)(F)C3)c2Cl)C1 [Compound I-364]
34	CCOc1cc(Cl)c2nc(O[C@H]3CC[C@H](OC[C@H](C)NC(C)=O)CC3)n(C)c2c1 [Compound I-692]
176	CC(=O)N[C@@H](C)CO[C@H]1C[C@H](COc2nccc3c2OCCN3Cc2ccccc2)C1 [Compound I-382]

IC50 [nM]	Compound
18	CC(=O)N[C@@H](C)CO[C@H]1C[C@H](COc2ncnc(OCC3CC3)c2Cl)C1 [Compound I-355]
26	CC(=O)N[C@@H](C)CO[C@H]1C[C@](F)(COc2ccc3nc(OC(C)C)sc3n2)C1 [Compound I-299]
170	CCOc1nc2ccc(OC[C@H]3C[C@H](OC[C@H](C)NC(C)=O)C3)nc2n1C [Compound I-519]
7	CC(=O)N[C@@H](C)CO[C@H]1C[C@H](COc2ncnc(OCc3ccc(F)cc3)c2Cl)C1 [Compound I-390]
724	CC(=O)N[C@@H](C)CO[C@H]1C[C@H](COc2cc(C)c3nc(OCC4CC4)n(C)c3n2)C1 [Compound I-486]
650	CC(=O)N[C@@H](C)CO[C@H]1CC[C@H](Oc2nc3c(C(N)=O)cc(OC4CC4)c(F)c3n2C)CC1 [Compound I-673]
775	CCOc1ccc2nc(O[C@H]3CC[C@H](OC[C@H](C)NC(C)=O)CC3)n(C)c2c1C#N [Compound I-720]
69	CC(=O)N[C@@H](C)CO[C@H]1C[C@H](COc2ncnc(OCc3cccnc3)c2Cl)C1 [Compound I-392]
843	CC(=O)N[C@@H](C)CO[C@H]1C[C@H](COc2ccc3nc(OCC4CC4)n(C)c3c2)C1 [Compound I-489]
171	CC(=O)N[C@@H](C)CO[C@H]1C[C@H](COc2ccc3nc(O[C@H]4C[C@H](O)C4)sc3n2)C1 [Compound I-293]
7	CC(=O)N[C@@H](C)CO[C@H]1C[C@H](COc2ccc3nc(OC4CCCC4)sc3n2)C1 [Compound I-242]
16	CC(=O)N[C@@H](C)CO[C@H]1C[C@H](COc2ncnc(OCc3ccc(F)cn3)c2F)C1 [Compound I-459]
86	CC(=O)N[C@@H](C)CO[C@H]1CC[C@H](Oc2nc3ccc(OCC(F)F)cc3n2C)CC1 [Compound I-569]
9	CC(=O)N[C@@H](C)CO[C@H]1CC[C@H](Oc2nc3cnc(OC4CC4)c(Cl)c3n2C)CC1 [Compound I-705]
28	CCOc1nc2cnc(O[C@H]3CC[C@H](OC[C@H](C)NC(C)=O)CC3)cc2s1 [Compound I-179]
24	CC(=O)N[C@@H](C)CO[C@H]1C[C@H](COc2ccc3nc(N4CCC4)sc3n2)C1 [Compound I-255]
196	CC(=O)N[C@@H](C)CO[C@H]1CC[C@H](Oc2ncc(-c3ncc(C#N)cn3)cc2C#N)CC1 [Compound I-530]
102	CC(=O)N[C@@H](C)CO[C@H]1CC[C@H](Oc2ccc3nc(N4CCCC(F)(F)C4)sc3c2F)CC1 [Compound I-236]
